Measured values reported in patent US20210186950A1, “COMBINATIONS COMPRISING TROPIFEXOR AND CENICRIVIROC” (NOVARTIS AG, priority 2018, published 2021).
“Also recorded” adds a separate entry of the source. Like-named read-outs stand apart in the source and are kept apart here.

Tests used:
FXR = experiment: FGF19 biomarker in single and multiple dose studies of TRX; type: in vivo, human; conditions: single doses 10-3000 μg or multiple daily doses 10-100 μg; 69 subjects
Experimental: (§1) A total of 69 subjects have received TRX at doses ranging from 10 μg to 3000 μg in single or 10 μg to 100 μg in multiple daily doses.

[1] = Safety in single dose studies of TRX; type: in vivo, human; conditions: single dose studies up to 3000 μg
Experimental: as §1

[2] = Drug-drug interaction study between TRX and CVC in healthy and healthy but overweight to obese subjects (plasma pharmacokinetics, tolerability); type: in vivo, human; conditions: for AUC(0-t) / Cmax: human, plasma, oral, TRX 60 μg
Excerpt: This is a single site, randomized, parallel group, 3 arm double-blind, double-dummy study to evaluate the potential drug-drug interaction between TRX and CVC in healthy and healthy but overweight to obese subjects. Healthy and healthy but overweight to obese subjects with body mass index (BMI) up to 32, are included to give a better representation of the NASH patients that will be studied in future clinical studies. The subjects were randomized into 3 arms a) TRX monotherapy, b) CVC monotherapy, and c) TRX and CVC as a combination.
A total of 42 subjects were randomized into the 3 parallel arms receiving single daily doses of TRX, CVC, and TRX+CVC combination.
This study examined doses of 60 μg of tropifexor and 150 mg of CVC given with a standard breakfast.
Pharmacokinetics: Sample collections included time points up to 24 hours after the first (Day 1) and the last (Day 14) doses to establish the AUC0-24 h,Cmax AUC0-24 h,ss and Cmax,ss for TRX, CVC, and TRX+CVC plasma concentration-time profiles.

[3] = test system: nonalcoholic steatohepatitis; conditions: cited from earlier work
[4] = 1-month combination toxicity study with CVC and TRX; type: in vivo; conditions: CVC 30 mg/kg/day alone
Experimental: A 1-month combination toxicity study was performed with cenicriviroc (CVC) (30 mg/kg/day) and tropifexor (TRX) (0.03 mg/kg or 1 mg/kg/day).

[5] = Phase I studies of CVC, tolerability; type: in vivo, human; conditions: single doses up to 900 mg; multiple daily doses up to 400 mg for 10 days
NASH with liver fibrosis = conditions: cited from earlier work
[6] = Day 14, TRX 60 μg + CVC 150 mg daily
[7] = Day 1, dosed alone, CVC 150 mg, with standard breakfast, read-out: area under the concentration-time curve (AUC0-24 h)
[8] = Day 1, dosed alone, CVC 150 mg, with standard breakfast, read-out: observed peak drug concentration (Cmax)
[9] = Day 14, dosed alone, CVC 150 mg daily, read-out: steady-state AUC0-24 h,ss
[10] = Day 14, dosed alone, CVC 150 mg daily, read-out: steady-state Cmax,ss
[11] = NASH adults with liver fibrosis, one year

Structure (SMILES) | FGF19, biomarker of FXR target engagement in the enterocyte (FXR) | safety concerns [1] | decrease of AUC0-24 h of TRX on co-administration of CVC ([2]; Day 1, TRX 60 μg + CVC 150 mg) | decrease of Cmax of TRX on co-administration of CVC ([2]; Day 1, TRX 60 μg + CVC 150 mg) | reduction of AUC0-24 h,ss of TRX when co-administered with CVC [2, 6] | reduction of Cmax,ss of TRX when co-administered with CVC [2, 6] | AUC(0-t) [2, 7] | Cmax [2, 8] | AUC(0-t) [2, 9] | Cmax [2, 10] | reduction of TRX exposure by co-administration of CVC ([2]; summary statement, TRX 60 μg + CVC 150 mg) | adverse effects on long term administration [3] | microscopic findings indicative of toxicity [4] | tolerability [5] | accumulation in plasma over the study duration ([2]; 150 mg daily, Day 1 to Day 14) | impact of co-administration with TRX on Cmax and AUC0-24 h of CVC ([2]; CVC 150 mg + TRX 60 μg) | fibrosis (NASH with liver fibrosis; [11]) | improvement of NAS (NASH with liver fibrosis; [11]) | adverse effects (NASH with liver fibrosis; patients)
O=C(O)c1cc(F)c2nc(N3[C@@H]4CC[C@H]3C[C@@H](OCc3c(-c5ccccc5OC(F)(F)F)noc3C3CC3)C4)sc2c1 [TRX, 2-[(1R,3r,5S)-3-({5-cyclopropyl-3-[2-(trifluoromethoxy)phenyl]-1,2-oxazol-4-yl}methoxy)-8-azabicyclo [3.2.1]octan-8-yl]-4-fluoro-1,3-benzothiazole-6-carboxylic acid] | Dose-dependent increases | No safety concerns | 32% | 33% | 35% | 35% | 0.0179 µg·h/mL | 0.00146 µg/mL | 0.0252 µg·h/mL | 0.00177 µg/mL | 32-33% |  |  |  |  |  |  |  | 
CC[C@H]1[C@@H](O)[C@@H]2[C@H](CC[C@]3(C)[C@@H]([C@H](C)CCC(=O)O)CC[C@@H]23)[C@@]2(C)CC[C@@H](O)C[C@@H]12 [OCA, obeticholic acid] |  |  |  |  |  |  |  |  |  |  |  | pruritus; also recorded: increased LDL cholesterol |  |  |  |  |  |  | 
CCCCOCCOc1ccc(-c2ccc3c(c2)/C=C(/C(=O)Nc2ccc([S@@+]([O-])Cc4cncn4CCC)cc2)CCCN3CC(C)C)cc1 [CVC, (S,E)-8-(4-(2-butoxyethoxy)phenyl)-1-(2-methylpropyl)-N-(4-(((1-propyl-1H-imidazol-5-yl)methyl)sulfinyl)phenyl)-1,2,3,4-tetrahydrobenzo[b]azocine-5-carboxamide] |  |  |  |  |  |  | 4.65 µg·h/mL | 0.45 µg/mL | 10.8 µg·h/mL | 0.778 µg/mL |  |  | no microscopic findings indicative of toxicity | generally well-tolerated | accumulated in plasma | no marked impact | reduction of fibrosis | no significant impact | can induce fatigue or diarrhea in a small part of the patients
